Marks after values point to notes of the source that are not given here.
What was measured:
[1] = tested on: experimental autoimmune encephalomyelitis (EAE) in WT C57BL/6 female mice; test: EAE clinical scoring, E2 pellets, WT mice (Example II); type: in vivo, mouse
[2] = tested on: CNS infiltration and demyelination in GPR30KO EAE mice; test: Spinal cord histology (H&E, LFB-PAS), GPR30KO EAE mice; type: in vivo, mouse; settings: E2-treated GPR30-KO mice, FIG. 1B
From the text: Spinal cords were dissected out for histology. Intact spinal columns were removed and dissected after fixation in 4% paraformaldehyde, dehydrated and embedding in paraffin. To examine neuroinflammation, the sections were stained with hematoxylin and eosin (H&E). To examine demyelination, the sections were stained with Luxon fast blue plus periodic acid Schiff (LFB-PAS).

EAE in PD-1KO mice = test: EAE clinical scoring, G-1 or E2 pellets, PD-1KO mice (Example IX); type: in vivo, mouse; settings: for protection against clinical EAE (in words): PD-1KO mice; for CDI / Daily / Mortality / Onset / Peak / Incidence: PD-1KO
[3] = tested on: EAE in GPR30KO female mice; test: EAE clinical scoring, E2 pellets, GPR30KO mice (Example II); type: in vivo, mouse; settings: E2 treated GPR30KO mice, 2.5 mg/60 day pellet
[4] = Serum E2 level by radioimmunoassay in E2-implanted mice; type: in vivo, mouse; settings: mice with 2.5 mg/60 day release E2 pellets; RIA; FIG. 3
Method: Serum levels of E2 were determined by radioimmunoassay (RIA) after Sephadex LH-20 column chromatography (GE Healthcare Life Sciences, Piscataway, N.J.). Representative animals were bled by cardiac puncture, and the blood was allowed to clot at 4° C. overnight. The samples were centrifuged, and the sera were collected and stored at −80° C. until hormone analysis was performed. All samples were analyzed in a single assay for each hormone.

[5] = tested on: cytokine secretion by splenocytes of PD-1KO immunized mice; test: Cytokine secretion of mMog-35-55 stimulated splenocytes, Luminex, PD-1KO mice; type: in vivo, mouse; settings: G-1 treated PD-1KO mice
Method: (§1) PD-1KO (Dr. […] One week after implantation experimental autoimmune encephalomyelitis (EAE) was induced. Splenocytes were harvested from […] cell proliferation and cytokine secretion in 48 h supernatants. (*P<0.05, or **P<0.01 compared to placebo). Lymph node and spleen cells were cultured at 4×10^6 cells/well in a 24 well flat-bottom culture plate in stimulation medium (RPMI 1640, 1% sodium pyruvate, 1% L-glutamine, 0.4% 2-β-ME, 10% FBS) with 25 μg/ml mMog-35-55 peptide for 48H. Supernatants were then harvested and stored at -80° C. until tested for cytokines. Culture supernatants were assessed for cytokine levels using a Luminex Bio-Plex mouse cytokine assay kit (BioRad, Hercules, Calif.) following the manufacturer's instructions. The following cytokines were determined in a single assay in three separate experiments: IL-1βIFN-γ, TNF-α, IL-2, IL-4, IL-5. IL-6, IL-12, IL-13, and IL-17. […] This cytokine profile was drastically altered in G-1 treated PD-1Ko mice. The decrease of Il-17 and increase of Il-6, Il-10 and IFN-γ production were abolished, whereas the reduction in IL-2 and Il-4 remained. Thus PD-1 was required for […] downregulation of IL-17 but not Il-2 and Il-4, and upregulation of IL-6, Il10 and IFN-γ.

uteri = test: Uterine weight (estrogenic effect); design: species or system mouse; settings: G-1 treatment in vivo, FIG. 2E
From the text: (§2) Treatment with G-1 in viva lacked the “estrogenic effects” of E2.

[6] = tested on: cytokine secretion by splenocytes of WT immunized mice; test: Cytokine secretion of mMog-35-55 stimulated splenocytes, Luminex, WT mice; type: in vivo, mouse; settings: 48 h supernatants
Method: as §1

[7] = tested on: splenocytes of PD-1KO EAE mice; test: Ex vivo T cell proliferation to mMOG-35-55, PD-1KO mice; type: in vivo, mouse; settings: G-1 treatment, FIG. 6B
Method: Splenocytes and lymph node cells were harvested ex-vivo from G-1 and E2 implanted mice and cultured in a 96-well flat bottom tissue culture plate at 4×10^5 cells/well in stimulation medium in the presence of APC, irradiated (2500 rad) syngenic thymocytes at a ration of 1:10 (T:APCs) wither with or without mMog 35-55 peptide at varying concentrations. The cells were incubated for 3 days at 37° C. in 7% CO2 and pulsed with 0.5 μCi of [^3H] thymidine (Perkin-Elmer, Boston, Mass.) for the final 18 h of incubation. The cells were harvested onto glass fiber filters, and incorporated radioactivity was measured by a liquid scintillation counter. The cpm values (mean±SD) were calculated from triplicate wells. Stimulation index (SI) was calculated by dividing the experimental cpm by the control cpm.
Splenocytes from placebo and G-1 treatment groups were evaluated for T cell proliferation and cytokine secretion in 48 h supernatants.

[8] = tested on: liver, eyes, heart, mammary gland, brain, spleen, kidney, muscle, lung; test: H&E organ histology in G-1 treated naive mice; type: in vivo, mouse; settings: 1.8 mg G-1 treated naive mice
From the text: as §2

[9] = WT, 2.5 mg/60 day release E2 pellet, 25 days
[10] = 2.5 mg/60 day E2 pellet, 20 days
[11] = 1.8 mg/40 day G-1 pellet, 20 days

C[C@]12CC[C@@H]3c4ccc(O)cc4CC[C@H]3[C@@H]1CC[C@@H]2O [E2, 17β estradiol]
clinical EAE (in words) ([1]; E2-treated WT mice, 2.5 mg/60 day pellet): no sign of the disease | Incidence ([1]; WT, 2.5 mg/60 day release E2 pellet one week before immunization, concluded 25 days after immunization): 0/10 | CDI [1, 9]: 0** | Daily [1, 9]: 0** | Mortality [1, 9]: 0/10 | Peak ([1]; WT, 2.5 mg/60 day release E2 pellet, 25 days, EAE score scale 0-6): 0** | cellular infiltration and demyelination in CNS [2]: visibly present, but at a reduced level | protection against clinical EAE (in words) (EAE in PD-1KO mice; E2 2.5 mg/60 day pellet): retained partial efficacy | CDI (EAE in PD-1KO mice; [10]): 16.4 ± 6.3 | Daily (EAE in PD-1KO mice; [10]): 1.5 ± 0.6 | Mortality (EAE in PD-1KO mice; [10]): 0/5 | Onset (EAE in PD-1KO mice; [10]): 16.4 ± 0.9 | Peak (EAE in PD-1KO mice; [10]): 4.1 ± 0.8 | Incidence (EAE in PD-1KO mice; 2.5 mg/60 day release E2 pellet, 20 days): 5/5 | clinical EAE (in words) [3]: delayed onset and were only partially protected from EAE | serum E2 levels [4]: 1.5 to 2 ng/mL

CC(=O)c1ccc2c(c1)C1C=CCC1C(c1cc3c(cc1Br)OCO3)N2 (stereo not drawn) [G-1]
decrease of Il-17 production [5]: abolished | increase of IFN-γ production [5]: abolished | increase of Il-6 production [5]: abolished | increase of Il-10 production [5]: abolished | reduction in IL-2 [5]: remained | reduction in Il-4 [5]: remained | protection against clinical EAE (in words) (EAE in PD-1KO mice; G-1 1.8 mg/40 day pellet): failed to protect | CDI (EAE in PD-1KO mice; [11]): 30.6 ± 9.1 | Daily (EAE in PD-1KO mice; [11]): 2.7 ± 0.8 | Mortality (EAE in PD-1KO mice; [11]): 1/5 | Onset (EAE in PD-1KO mice; [11]): 13.8 ± 1.3 | Peak (EAE in PD-1KO mice; [11]): 4.8 ± 0.6 | Incidence (EAE in PD-1KO mice; 1.8 mg/40 day release G-1 pellet, euthanized after 20 days): 5/5 | weight of uteri (uteri): did not significantly change | secretion of IL-17 ([6]; G-1 1.8 mg/40 day pellet, WT, 25 μg/ml mMog-35-55): significantly reduced | production of IFN-γ ([6]; G-1 treated WT): increased | production of IL-1β ([6]; G-1 treated WT): did not significantly change | production of IL-5 ([6]; G-1 treated WT): did not significantly change | production of Il-4 ([6]; G-1 treated WT): suppressed | production of Il-6 ([6]; G-1 treated WT): increased | production of Il-12 ([6]; G-1 treated WT): did not significantly change | production of TNF-α ([6]; G-1 treated WT): did not significantly change | secretion of IL-2 ([6]; G-1 treated WT): significantly reduced | secretion of IL-10 ([6]; G-1 treated WT): increased | T cell proliferation to mMog-35-55 [7]: did not significantly change | abnormalities by H&E staining in liver, eyes, heart, mammary gland, brain, spleen, kidney, muscle or lung [8]: no abnormalities
